According to patent US9096518B2, “Substituted hydroxamic acids and uses thereof” (Millennium Pharmaceuticals, Inc., priority 2009, dated 2015):

These compounds were tested against T1, purified human HDAC6 (Homo sapiens, UniProt Q9UBN7) (assay: HDAC6 Enzyme Assay).
T1 construct: purchased BPS Bioscience 5006
T1 sequence (Q9UBN7 1-1215): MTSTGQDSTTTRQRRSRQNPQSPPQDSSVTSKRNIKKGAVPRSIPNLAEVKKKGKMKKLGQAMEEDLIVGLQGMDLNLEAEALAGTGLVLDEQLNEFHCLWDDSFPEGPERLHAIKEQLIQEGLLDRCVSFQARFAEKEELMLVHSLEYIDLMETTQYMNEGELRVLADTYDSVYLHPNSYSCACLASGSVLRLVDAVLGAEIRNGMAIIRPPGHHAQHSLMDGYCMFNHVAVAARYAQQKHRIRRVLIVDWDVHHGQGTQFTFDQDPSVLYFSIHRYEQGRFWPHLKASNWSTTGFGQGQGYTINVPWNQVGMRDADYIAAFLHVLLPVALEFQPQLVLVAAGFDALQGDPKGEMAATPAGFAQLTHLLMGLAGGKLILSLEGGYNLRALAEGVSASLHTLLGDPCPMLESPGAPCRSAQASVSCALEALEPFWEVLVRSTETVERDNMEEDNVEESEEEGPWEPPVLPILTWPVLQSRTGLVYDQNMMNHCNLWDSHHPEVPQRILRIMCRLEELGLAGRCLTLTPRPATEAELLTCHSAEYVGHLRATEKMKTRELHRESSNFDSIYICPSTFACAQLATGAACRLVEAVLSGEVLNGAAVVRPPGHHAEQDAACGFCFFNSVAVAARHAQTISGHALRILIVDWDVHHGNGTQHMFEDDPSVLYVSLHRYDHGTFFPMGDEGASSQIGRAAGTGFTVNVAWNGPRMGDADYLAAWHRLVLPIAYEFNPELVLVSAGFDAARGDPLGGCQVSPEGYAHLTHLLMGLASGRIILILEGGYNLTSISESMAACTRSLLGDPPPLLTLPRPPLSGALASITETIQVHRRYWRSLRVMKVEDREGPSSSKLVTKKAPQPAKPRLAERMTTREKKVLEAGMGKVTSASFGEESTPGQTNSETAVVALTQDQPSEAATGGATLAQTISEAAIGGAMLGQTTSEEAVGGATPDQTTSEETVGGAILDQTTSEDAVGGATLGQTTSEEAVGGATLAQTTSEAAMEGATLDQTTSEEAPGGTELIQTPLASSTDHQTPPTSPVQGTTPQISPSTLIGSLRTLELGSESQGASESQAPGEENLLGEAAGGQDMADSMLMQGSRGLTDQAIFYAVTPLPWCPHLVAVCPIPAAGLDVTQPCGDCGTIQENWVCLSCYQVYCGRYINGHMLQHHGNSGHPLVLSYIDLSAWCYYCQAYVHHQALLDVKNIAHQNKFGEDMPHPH
Format: biochemical
Experimental: To measure the inhibition of HDAC6 activity, purified human HDAC6 (BPS Bioscience; Cat. No. 5006) is incubated with substrate Ac-Arg-Gly-Lys(Ac)-AMC peptide (Bachem Biosciences; Cat. No. I-1925) for 1 hour at 30° C. in the presence of test compounds or vehicle DMSO control. The reaction is stopped with the HDAC inhibitor trichostatin A (Sigma; Cat. No. T8552) and the amount of Arg-Gly-Lys-AMC generated is quantitated by digestion with trypsin (Sigma; Cat. No. T1426) and subsequent measurement of the amount of AMC released using a fluorescent plate reader (Pherastar; BMG Technologies) set at Ex 340 nm and Em 460 nm. Concentration response curves are generated by calculating the fluorescence increase in test compound-treated samples relative to DMSO-treated controls, and enzyme inhibition (IC50) values are determined from those curves.

Compound | IC50 [nM]
O=C(NO)c1ccc2c(c1)CCN(Cc1ccc(-n3cccn3)cc1)C2 [Compound 68, N-hydroxy-2-[4-(1H-pyrazol-1-yl)benzyl]-1,2,3,4-tetrahydroisoquinoline-6-carboxamide] | 100 to 500
O=C(NO)c1ccc2c(c1)CCN(Cc1cccc3nsnc13)C2 [Compound 69, 2-(2,1,3-benzothiadiazol-4-ylmethyl)-N-hydroxy-1,2,3,4-tetrahydroisoquinoline-6-carboxamide] | 100 to 500
O=C(NO)c1ccc2c(c1)CCN(Cc1nc(-c3ccc(Cl)cc3)no1)C2 [Compound 71, 2-{[3-(4-chlorophenyl)-1,2,4-oxadiazol-5-yl]methyl}-N-hydroxy-1,2,3,4-tetrahydroisoquinoline-6-carboxamide] | 50 to 100
O=C(NO)c1ccc2c(c1)CCN(CCC(=O)N1CCc3ccccc31)C2 [Compound 73, 2-[3-(2,3-dihydro-1H-indol-1-yl)-3-oxopropyl]-N-hydroxy-1,2,3,4-tetrahydroisoquinoline-6-carboxamide] | 50 to 100
O=C(NO)c1ccc2c(c1)CCN(Cc1nccn1Cc1ccccc1)C2 [Compound 74, 2-[(1-benzyl-1H-imidazol-2-yl)methyl]-N-hydroxy-1,2,3,4-tetrahydroisoquinoline-6-carboxamide] | > 500
Cc1c(-c2csc(N3CCc4cc(C(=O)NO)ccc4C3)n2)sc2ccccc12 [Compound 76, N-hydroxy-2-[4-(3-methyl-1-benzothien-2-yl)-1,3-thiazol-2-yl]-1,2,3,4-tetrahydroisoquinoline-6-carboxamide] | 50 to 100
CC(C)(C)C(=O)N1Cc2ccc(C(=O)NO)cc2C1 [Compound 81, 2-(2,2-dimethylpropanoyl)-N-hydroxyisoindoline-5-carboxamide] | 50 to 100
CC(C)(C)C(=O)N1CCCc2cc(C(=O)NO)ccc2C1 [Compound 82, 2-(2,2-dimethylpropanoyl)-N-hydroxy-2,3,4,5-tetrahydro-1H-2-benzazepine-7-carboxamide] | 100 to 500
Cn1cccc1C(=O)N1CCCc2cc(C(=O)NO)ccc2C1 [Compound 83, N-hydroxy-2-[(1-methyl-1H-pyrrol-2-yl)carbonyl]-2,3,4,5-tetrahydro-1H-2-benzazepine-7-carboxamide] | 100 to 500
O=C(NO)c1ccc2c(c1)CCCN(C(=O)c1ccc(C(F)(F)F)cc1)C2 [Compound 84, N-hydroxy-2-[4-(trifluoromethyl)benzoyl]-2,3,4,5-tetrahydro-1H-2-benzazepine-7-carboxamide] | > 500
CC(C)(C)C(=O)N1CCc2ccc(C(=O)NO)cc2CC1 [Compound 85, 3-(2,2-dimethylpropanoyl)-N-hydroxy-2,3,4,5-tetrahydro-1H-3-benzazepine-7-carboxamide] | 100 to 500
Cn1cccc1C(=O)N1CCc2ccc(C(=O)NO)cc2CC1 [Compound 86, N-hydroxy-3-[(1-methyl-1H-pyrrol-2-yl)carbonyl]-2,3,4,5-tetrahydro-1H-3-benzazepine-7-carboxamide] | 100 to 500
O=C(NO)c1ccc2c(c1)CCN(C(=O)c1ccc(C(F)(F)F)cc1)CC2 [Compound 87, N-hydroxy-3-[4-(trifluoromethyl)benzoyl]-2,3,4,5-tetrahydro-1H-3-benzazepine-7-carboxamide] | 100 to 500
O=C(NO)c1ccc2c(c1)CCN(C(=O)Nc1ccc(-c3ccccc3)s1)C2 [Compound 95, N^6-hydroxy-N^2-(5-phenyl-2-thienyl)-3,4-dihydroisoquinoline-2,6(1H)-dicarboxamide] | < 50
CC(C)(C)c1ccccc1NC(=O)N1CCc2cc(C(=O)NO)ccc2C1 [Compound 96, N^2-(2-tert-butylphenyl)-N^6-hydroxy-3,4-dihydroisoquinoline-2,6(1H)-dicarboxamide] | < 50
CCCNC(=O)N1CCc2cc(C(=O)NO)ccc2C1 [Compound 97, N^6-hydroxy-N^2-propyl-3,4-dihydroisoquinoline-2,6(1H)-dicarboxamide] | 50 to 100
O=C(NO)c1ccc2c(c1)CCN(C(=O)Nc1cccc(C(F)(F)F)c1)C2 [Compound 98, N^6-hydroxy-N^2-[3-(trifluoromethyl)phenyl]-3,4-dihydroisoquinoline-2,6(1H)-dicarboxamide] | < 50
O=C(NO)c1ccc2c(c1)CCN(C(=O)Nc1ccc(Cc3ccccc3)cc1)C2 [Compound 99, N^2-(4-benzylphenyl)-N^6-hydroxy-3,4-dihydroisoquinoline-2,6(1H)-dicarboxamide] | < 50
O=C(NO)c1ccc2c(c1)CCN(C(=O)Nc1cccc3ccccc13)C2 [Compound 100, N^6-hydroxy-N^2-1-naphthyl-3,4-dihydroisoquinoline-2,6(1H)-dicarboxamide] | < 50

More lines, now with the values ahead:

IC50 [nM] | Compound
< 50 | COc1ccccc1-c1nc(CN2CCc3cc(C(=O)NO)ccc3C2)no1 [Compound 72, N-hydroxy-2-{[5-(2-methoxyphenyl)-1,2,4-oxadiazol-3-yl]methyl}-1,2,3,4-tetrahydroisoquinoline-6-carboxamide]
< 50 | O=C(NO)c1ccc2c(c1)CCN(c1nc(-c3ccc4c(c3)OCCO4)cs1)C2 [Compound 75, 2-[4-(2,3-dihydro-1,4-benzodioxin-6-yl)-1,3-thiazol-2-yl]-N-hydroxy-1,2,3,4-tetrahydroisoquinoline-6-carboxamide]
< 50 | O=C(NO)c1ccc2c(c1)CCN(c1nc(-c3cccc(Cl)c3)cs1)C2 [Compound 77, 2-[4-(3-chlorophenyl)-1,3-thiazol-2-yl]-N-hydroxy-1,2,3,4-tetrahydroisoquinoline-6-carboxamide]
< 50 | Cn1cccc1C(=O)N1Cc2ccc(C(=O)NO)cc2C1 [Compound 78, N-hydroxy-2-[(1-methyl-1H-pyrrol-2-yl)carbonyl]isoindoline-5-carboxamide]
< 50 | COc1cc(Cl)ccc1C(=O)N1Cc2ccc(C(=O)NO)cc2C1 [Compound 79, 2-(4-chloro-2-methoxybenzoyl)-N-hydroxyisoindoline-5-carboxamide]
< 50 | CC(C)(C(=O)N1Cc2ccc(C(=O)NO)cc2C1)c1ccc(Cl)cc1 [Compound 80, 2-[2-(4-chlorophenyl)-2-methylpropanoyl]-N-hydroxyisoindoline-5-carboxamide]
< 50 | CC(C)(C(=O)N1CCc2ccc(C(=O)NO)cc2CC1)c1ccc(Cl)cc1 [Compound 88, 3-[2-(4-chlorophenyl)-2-methylpropanoyl]-N-hydroxy-2,3,4,5-tetrahydro-1H-3-benzazepine-7-carboxamide]
< 50 | O=C(NO)c1ccc2c(c1)CCN(C(=O)Nc1ccc3c(c1)CCO3)C2 [Compound 89, N^2-(2,3-dihydro-1-benzofuran-5-yl)-N^6-hydroxy-3,4-dihydroisoquinoline-2,6(1H)-dicarboxamide]
< 50 | O=C(NO)c1ccc2c(c1)CCN(C(=O)Nc1ccc3c(c1)OCO3)C2 [Compound 90, N^2-1,3-benzodioxol-5-yl-N^6-hydroxy-3,4-dihydroisoquinoline-2,6(1H)-dicarboxamide]
< 50 | O=C(NO)c1ccc2c(c1)CCN(C(=O)NCCc1ccccc1)C2 [Compound 91, N^6-hydroxy-N^2-(2-phenylethyl)-3,4-dihydroisoquinoline-2,6(1H)-dicarboxamide]
< 50 | O=C(NO)c1ccc2c(c1)CCN(C(=O)Nc1ccc(OC(F)(F)F)cc1)C2 [Compound 92, N^6-hydroxy-N^2-[4-(trifluoromethoxy)phenyl]-3,4-dihydroisoquinoline-2,6(1H)-dicarboxamide]
< 50 | CCC(C)NC(=O)N1CCc2cc(C(=O)NO)ccc2C1 (centres unmarked) [Compound 93, N^2-(sec-butyl)-N^6-hydroxy-3,4-dihydroisoquinoline-2,6(1H)-dicarboxamide]
< 50 | CCc1cccc(C)c1NC(=O)N1CCc2cc(C(=O)NO)ccc2C1 [Compound 94, N^2-(2-ethyl-6-methylphenyl)-N^6-hydroxy-3,4-dihydroisoquinoline-2,6(1H)-dicarboxamide]
